# Values of other authors, collected in patent US4127538A, “Novel pentacosapeptides, intermediates therefor and pharmaceutical compositions and methods employing said pentacosapeptides” (priority 1977, dated 1978).
# Tests used:
# [1] = tested on: partially purified brain opiate receptor sites
# [2] = injected directly into the brain of the rat
substance,measurement,setting,value
H-Tyr-Gly-Gly-Phe-Met-OH [methionine enkephalin],binding to partially purified brain opiate receptor sites,[1],binds stereo-specifically
same,analgesic effect,[2],weak analgesic agent of short duration
